Experimental data as given in patent publication US8183414B2, “N-(1-phenyl-2-arylethyl)-4,5-dihydro-2H-pyrrol-5-amine compounds as subtype selective modulators of ALPHA2B or ALPHA2B and ALPHA2C adrenoceptors” (Allergan, Inc., priority 2008, dated 2012).
pEC50: −log10 of the molar value. Read-outs that look alike come from different tables or passages of the source.

Assays:
Assay type in all cases: cell-based
α2B adrenergic receptor = target: T1, α2B adrenergic receptor (Homo sapiens, UniProt P18089); assay: RSAT (Receptor Selection and Amplification Technology) assay, α2B; settings: for pEC50 / RSAT EC50 α2B: cells expressing the receptor alone, receptor-mediated growth response, NA = not active; for RSAT Rel Eff α2B: relative efficacy compared to a standard full agonist
T1 construct: expressed in transfected cells
T1 sequence (P18089 1-450): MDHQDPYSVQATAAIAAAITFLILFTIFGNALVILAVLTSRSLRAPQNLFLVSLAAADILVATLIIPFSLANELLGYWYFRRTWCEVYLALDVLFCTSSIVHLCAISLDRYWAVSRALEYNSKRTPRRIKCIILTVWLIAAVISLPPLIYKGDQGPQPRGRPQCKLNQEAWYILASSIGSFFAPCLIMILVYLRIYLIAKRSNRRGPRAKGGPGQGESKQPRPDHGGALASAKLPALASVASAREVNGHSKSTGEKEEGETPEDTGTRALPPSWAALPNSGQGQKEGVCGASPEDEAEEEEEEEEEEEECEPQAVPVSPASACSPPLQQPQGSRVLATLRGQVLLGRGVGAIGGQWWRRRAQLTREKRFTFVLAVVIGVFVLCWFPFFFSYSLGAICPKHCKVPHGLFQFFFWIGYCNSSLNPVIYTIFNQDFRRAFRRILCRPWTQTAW
Method: (§1) Cells expressing each of the alpha-2 adrenergic receptors alone were incubated with the various compounds and a receptor-mediated growth response was measured.

α2C adrenergic receptor = target: T2, α2C adrenergic receptor (Homo sapiens, UniProt P18825); assay: RSAT (Receptor Selection and Amplification Technology) assay, α2C; settings: for pEC50: cells expressing the receptor alone, receptor-mediated growth response, NA = not active; for RSAT Rel Eff α2C: relative efficacy compared to a standard full agonist
T2 construct: expressed in transfected cells
T2 sequence (P18825 1-462): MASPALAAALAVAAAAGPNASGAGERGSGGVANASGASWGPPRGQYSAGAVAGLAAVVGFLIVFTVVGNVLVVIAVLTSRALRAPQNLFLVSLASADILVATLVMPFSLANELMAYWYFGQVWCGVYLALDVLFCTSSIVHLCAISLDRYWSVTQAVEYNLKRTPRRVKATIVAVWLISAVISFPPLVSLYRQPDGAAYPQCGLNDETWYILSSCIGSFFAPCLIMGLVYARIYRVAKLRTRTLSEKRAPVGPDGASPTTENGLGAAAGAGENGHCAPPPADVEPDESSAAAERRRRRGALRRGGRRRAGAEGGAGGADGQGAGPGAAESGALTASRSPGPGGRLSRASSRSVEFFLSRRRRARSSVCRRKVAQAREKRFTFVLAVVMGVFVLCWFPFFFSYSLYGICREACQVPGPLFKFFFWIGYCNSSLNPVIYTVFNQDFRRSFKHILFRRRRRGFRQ
Method: as §1

α2A adrenergic receptor = target: T3, α2A adrenergic receptor (Homo sapiens, UniProt P08913); assay: RSAT (Receptor Selection and Amplification Technology) assay, α2A
T3 construct: expressed in transfected cells
T3 sequence (P08913 1-465): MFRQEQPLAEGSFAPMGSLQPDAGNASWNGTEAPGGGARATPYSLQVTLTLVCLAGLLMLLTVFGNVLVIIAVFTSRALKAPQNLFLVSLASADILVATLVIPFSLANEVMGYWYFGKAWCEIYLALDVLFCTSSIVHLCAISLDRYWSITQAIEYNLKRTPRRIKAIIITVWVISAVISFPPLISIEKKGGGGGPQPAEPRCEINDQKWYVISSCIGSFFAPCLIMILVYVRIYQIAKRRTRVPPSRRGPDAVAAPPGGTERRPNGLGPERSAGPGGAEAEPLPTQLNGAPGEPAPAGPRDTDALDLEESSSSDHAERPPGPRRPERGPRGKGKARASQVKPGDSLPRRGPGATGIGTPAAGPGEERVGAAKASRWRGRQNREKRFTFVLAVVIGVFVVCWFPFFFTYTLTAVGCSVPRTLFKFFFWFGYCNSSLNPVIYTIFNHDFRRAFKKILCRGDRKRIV
Method: Novel compounds having this general structure were synthesized and tested for alpha adrenergic activity using the Receptor Selection and Amplification Technology (RSAT) assay (Messier et. al., 1995, Pharmacol. Toxicol. 76, pp. 308-311). Cells expressing each of the alpha-2 adrenergic receptors alone were incubated with the various compounds and a receptor-mediated growth response was measured. The compounds activity is described as its EC50 and relative efficacy compared to a standard full agonist.

Cc1cccc(C(Cc2ccncc2)NC2=NCCC2)c1C (single isomer, unassigned) [Compound 18]
pEC50 (α2B adrenergic receptor; read-out: RSAT EC50 α2B): 8.51
RSAT Rel Eff α2B (α2B adrenergic receptor): (0.93)
pEC50 (α2C adrenergic receptor): 7.71
RSAT Rel Eff α2C (α2C adrenergic receptor): (0.43)

Cc1cccc(C(Cc2ccncc2)NC2=NCCC2)c1C (single isomer, unassigned) [Compound 19]
pEC50 (α2B adrenergic receptor; read-out: RSAT EC50 α2B): 6.68
RSAT Rel Eff α2B (α2B adrenergic receptor): (0.58)

Clc1cccc(C(Cc2ccncc2)NC2=NCCC2)c1Cl (centres unmarked) [Compound 1]
pEC50 (α2B adrenergic receptor; read-out: RSAT EC50 α2B): 8.05
RSAT Rel Eff α2B (α2B adrenergic receptor): (1.25)
pEC50 (α2C adrenergic receptor): 7.32
RSAT Rel Eff α2C (α2C adrenergic receptor): (0.59)

Cc1cccc(C(Cc2ccncc2)NC2=NCCC2)c1C (centres unmarked) [Compound 2]
pEC50 (α2B adrenergic receptor; read-out: RSAT EC50 α2B): 8.06
RSAT Rel Eff α2B (α2B adrenergic receptor): (1.04)
pEC50 (α2C adrenergic receptor): 7.07
RSAT Rel Eff α2C (α2C adrenergic receptor): (0.37)

c1ccc(CC(NC2=NCCC2)c2ccccc2)cc1 (centres unmarked) [Compound 3]
pEC50 (α2B adrenergic receptor; read-out: RSAT EC50 α2B): 7.67
RSAT Rel Eff α2B (α2B adrenergic receptor): (0.63)
pEC50 (α2C adrenergic receptor): 7.85
RSAT Rel Eff α2C (α2C adrenergic receptor): (0.36)

Clc1ccccc1C(Cc1ccncc1)NC1=NCCC1 (centres unmarked) [Compound 4]
pEC50 (α2B adrenergic receptor; read-out: RSAT EC50 α2B): 7.42
RSAT Rel Eff α2B (α2B adrenergic receptor): (0.57)
pEC50 (α2C adrenergic receptor): 7.99
RSAT Rel Eff α2C (α2C adrenergic receptor): (0.56)

Fc1c(Cl)cccc1C(Cc1ccncc1)NC1=NCCC1 (centres unmarked) [Compound 5]
pEC50 (α2B adrenergic receptor; read-out: RSAT EC50 α2B): 7.97
RSAT Rel Eff α2B (α2B adrenergic receptor): (0.94)

Cc1cccc(C(Cc2ccccc2)NC2=NCCC2)c1C (centres unmarked) [Compound 6]
pEC50 (α2B adrenergic receptor; read-out: RSAT EC50 α2B): 8.54
RSAT Rel Eff α2B (α2B adrenergic receptor): (0.72)

Clc1cccc(C(Cc2ccccc2)NC2=NCCC2)c1Cl (centres unmarked) [Compound 7]
pEC50 (α2B adrenergic receptor; read-out: RSAT EC50 α2B): 8.18
RSAT Rel Eff α2B (α2B adrenergic receptor): (0.88)

Clc1cccc(C(Cc2ccccc2)NC2=NCCC2)c1 (centres unmarked) [Compound 8]
pEC50 (α2B adrenergic receptor; read-out: RSAT EC50 α2B): 7.94
RSAT Rel Eff α2B (α2B adrenergic receptor): (0.71)

Cc1ccccc1CC(NC1=NCCC1)c1cccc(Cl)c1 (centres unmarked) [Compound 9]
pEC50 (α2B adrenergic receptor; read-out: RSAT EC50 α2B): 8.49
RSAT Rel Eff α2B (α2B adrenergic receptor): (0.62)
pEC50 (α2C adrenergic receptor): 8.55

Clc1ccccc1C(Cc1ccccc1)NC1=NCCC1 (centres unmarked) [Compound 10]
pEC50 (α2B adrenergic receptor; read-out: RSAT EC50 α2B): 7.92
RSAT Rel Eff α2B (α2B adrenergic receptor): (0.51)
pEC50 (α2C adrenergic receptor): 7.88
RSAT Rel Eff α2C (α2C adrenergic receptor): (0.37)

Fc1ccc(CC(NC2=NCCC2)c2cccc(Cl)c2Cl)cc1 (centres unmarked) [Compound 11]
pEC50 (α2B adrenergic receptor; read-out: RSAT EC50 α2B): 8.10
RSAT Rel Eff α2B (α2B adrenergic receptor): (0.80)

Clc1cccc(C(Cc2ccccc2Br)NC2=NCCC2)c1Cl (centres unmarked) [Compound 12]
pEC50 (α2B adrenergic receptor; read-out: RSAT EC50 α2B): 8.06
RSAT Rel Eff α2B (α2B adrenergic receptor): (0.96)

COc1cccc(CC(NC2=NCCC2)c2cccc(Cl)c2Cl)c1 (centres unmarked) [Compound 13]
pEC50 (α2B adrenergic receptor; read-out: RSAT EC50 α2B): 8.40
RSAT Rel Eff α2B (α2B adrenergic receptor): (0.97)
pEC50 (α2C adrenergic receptor): 7.89
RSAT Rel Eff α2C (α2C adrenergic receptor): (0.36)

Fc1c(Cl)cccc1C(Cc1ccccc1)NC1=NCCC1 (centres unmarked) [Compound 14]
pEC50 (α2B adrenergic receptor; read-out: RSAT EC50 α2B): 8.07
RSAT Rel Eff α2B (α2B adrenergic receptor): (0.96)
pEC50 (α2C adrenergic receptor): 8.20
RSAT Rel Eff α2C (α2C adrenergic receptor): (0.36)

Cc1c(F)cccc1CC(NC1=NCCC1)c1cccc(Cl)c1Cl (centres unmarked) [Compound 15]
pEC50 (α2B adrenergic receptor; read-out: RSAT EC50 α2B): 7.89
RSAT Rel Eff α2B (α2B adrenergic receptor): (0.70)

Clc1ccc(Cl)c(CC(NC2=NCCC2)c2cccc(Cl)c2Cl)c1 (centres unmarked) [Compound 16]
pEC50 (α2B adrenergic receptor; read-out: RSAT EC50 α2B): 7.98
RSAT Rel Eff α2B (α2B adrenergic receptor): (1.04)
pEC50 (α2C adrenergic receptor): 7.90
RSAT Rel Eff α2C (α2C adrenergic receptor): (0.35)

Fc1cccc(Cl)c1CC(NC1=NCCC1)c1cccc(Cl)c1Cl (centres unmarked) [Compound 17]
pEC50 (α2B adrenergic receptor; read-out: RSAT EC50 α2B): 7.71
RSAT Rel Eff α2B (α2B adrenergic receptor): (0.73)

Clc1cc(Cl)cc(CC(NC2=NCCC2)c2cccc(Cl)c2Cl)c1 (centres unmarked) [Compound 20]
pEC50 (α2B adrenergic receptor; read-out: RSAT EC50 α2B): 8.66
RSAT Rel Eff α2B (α2B adrenergic receptor): (1.18)
pEC50 (α2C adrenergic receptor): 7.77
RSAT Rel Eff α2C (α2C adrenergic receptor): (0.46)

c1ccc(C(Cc2ccncc2)NC2=NCCC2)cc1 (centres unmarked) [Compound 21]
pEC50 (α2B adrenergic receptor; read-out: RSAT EC50 α2B): 7.23
RSAT Rel Eff α2B (α2B adrenergic receptor): (0.81)
pEC50 (α2C adrenergic receptor): 7.40
RSAT Rel Eff α2C (α2C adrenergic receptor): (0.34)

Clc1ccc(CC(NC2=NCCC2)c2cccc(Cl)c2Cl)c(Cl)c1 (centres unmarked) [Compound 22]
pEC50 (α2B adrenergic receptor; read-out: RSAT EC50 α2B): 8.15
RSAT Rel Eff α2B (α2B adrenergic receptor): (1.03)

Clc1cccc(C(CCc2ccccc2)NC2=NCCC2)c1Cl (centres unmarked) [Compound 23]
pEC50 (α2B adrenergic receptor; read-out: RSAT EC50 α2B): 7.24
RSAT Rel Eff α2B (α2B adrenergic receptor): (0.69)

c1ccc(C(Cc2ccccn2)NC2=NCCC2)cc1 (centres unmarked) [Compound 24]
pEC50 (α2B adrenergic receptor; read-out: RSAT EC50 α2B): 6.67
RSAT Rel Eff α2B (α2B adrenergic receptor): (0.44)

c1ccc(C(Cc2cccnc2)NC2=NCCC2)cc1 (centres unmarked) [Compound 25]
pEC50 (α2B adrenergic receptor; read-out: RSAT EC50 α2B): 7.09
RSAT Rel Eff α2B (α2B adrenergic receptor): (0.74)

Clc1ccc(CC(NC2=NCCC2)c2cccc(Cl)c2Cl)cc1Cl (centres unmarked) [Compound 26]
pEC50 (α2B adrenergic receptor; read-out: RSAT EC50 α2B): 8.07
RSAT Rel Eff α2B (α2B adrenergic receptor): (0.93)

Cc1cccc(C(Cc2cccnc2)NC2=NCCC2)c1C (centres unmarked) [Compound 27]
RSAT EC50 α2B (α2B adrenergic receptor): Potent
RSAT Rel Eff α2B (α2B adrenergic receptor): (1.04)

Clc1cccc(C(Cc2cccnc2)NC2=NCCC2)c1Cl (centres unmarked) [Compound 28, N-(1-(2,3-dichlorophenyl)-2-(pyridin-3-yl)ethyl)-3,4-dihydro-2H-pyrrol-5-amine]
RSAT EC50 α2B (α2B adrenergic receptor): Potent
RSAT Rel Eff α2B (α2B adrenergic receptor): (1.19)

Cc1cncc(CC(NC2=NCCC2)c2cccc(Cl)c2)c1 (centres unmarked) [Compound 29]
pEC50 (α2A adrenergic receptor; cells expressing the receptor alone, receptor-mediated growth response, NA = not active): 6.53
RSAT Rel Eff α2A (α2A adrenergic receptor; relative efficacy compared to a standard full agonist): (0.31)
RSAT EC50 α2B (α2B adrenergic receptor): Potent
RSAT Rel Eff α2B (α2B adrenergic receptor): (1.1)
pEC50 (α2C adrenergic receptor): 7.53
RSAT Rel Eff α2C (α2C adrenergic receptor): (0.36)

Clc1cccc(C(Cc2cccnc2Cl)NC2=NCCC2)c1 (centres unmarked) [Compound 30]
RSAT EC50 α2B (α2B adrenergic receptor): Potent
RSAT Rel Eff α2B (α2B adrenergic receptor): (1.09)

Clc1cccc(C(Cc2ccc(Cl)nc2)NC2=NCCC2)c1 (centres unmarked) [Compound 31]
pEC50 (α2B adrenergic receptor; RSAT EC50 α2B): 7.17
RSAT Rel Eff α2B (α2B adrenergic receptor): (0.84)

Cc1c(Br)cncc1CC(NC1=NCCC1)c1cccc(Cl)c1 (centres unmarked) [Compound 32]
pEC50 (α2B adrenergic receptor; read-out: RSAT EC50 α2B): 7.95
RSAT Rel Eff α2B (α2B adrenergic receptor): (0.92)

Cc1cncc(CC(NC2=NCCC2)c2cccc(Cl)c2)c1C (centres unmarked) [Compound 33]
pEC50 (α2B adrenergic receptor; read-out: RSAT EC50 α2B): 7.70
RSAT Rel Eff α2B (α2B adrenergic receptor): (0.91)

Cc1cccc(C(Cc2cncc(C)c2C)NC2=NCCC2)c1 (centres unmarked) [Compound 34]
pEC50 (α2B adrenergic receptor; read-out: RSAT EC50 α2B): 8.29
RSAT Rel Eff α2B (α2B adrenergic receptor): (0.85)
